According to PubChem BioAssay AID330 (DTP/NCI, 2004):
Values joined by “and” are separate entries in the source; they are usually repeats but may differ in a detail not shown here. Identical values can stand only once. Toxic doses and inconclusive results are not listed. Square brackets hold non-standard residues; d marks the D form. Peptide text beside a SMILES is read from it. ξ: configuration not given here. ξPhe(4-N(CH2CH2Cl)2) = NC(Cc1ccc(N(CCCl)CCCl)cc1)C(=O)O; Aad = N[CH](CCCC(=O)O)C(=O)O

Tested on: P388 leukemia ip, CD2F1 mice, survival T/C
Assay: NCI In Vivo Anticancer Drug Screen. Data for tumor model P388 Leukemia (intraperitoneal) in CD2F1 (CDF1) mice
Conditions: higher = longer survival
Method in brief: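 Mice carrying the transplanted tumor received test compound or vehicle. Survival was recorded in each group, and the value is the treated-group measurement divided by that of the vehicle-treated control group.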

[1] = endpoint: median survival time, dose: 50.0 mg/kg/injection, schedule: Q01DX009 (ip), vehicle: saline with Tween-80
[2] = endpoint: median survival time, dose: 100.0 mg/kg/injection, schedule: Q01DX009 (ip), vehicle: saline with Tween-80
[3] = endpoint: median survival time, dose: 200.0 mg/kg/injection, schedule: Q01DX009 (ip), vehicle: saline with Tween-80
[4] = endpoint: median survival time, dose: 50.0 mg/kg/injection, schedule: Q01DX005 (ip), vehicle: saline with Tween-80
[5] = endpoint: median survival time, dose: 100.0 mg/kg/injection, schedule: Q01DX005 (ip), vehicle: saline with Tween-80
[6] = endpoint: median survival time, dose: 200.0 mg/kg/injection, schedule: Q01DX005 (ip), vehicle: saline with Tween-80
[7] = endpoint: median survival time, dose: 100.0 mg/kg/injection, schedule: Q01DX001 (ip), vehicle: saline with Tween-80
[8] = endpoint: median survival time, dose: 200.0 mg/kg/injection, schedule: Q01DX001 (ip), vehicle: saline with Tween-80
[9] = endpoint: median survival time, dose: 60.0 mg/kg/injection, schedule: Q01DX005 (ip), vehicle: Klucel (hydroxypropylcellulose) (HPC)
[10] = endpoint: median survival time, dose: 120.0 mg/kg/injection, schedule: Q01DX005 (ip), vehicle: Klucel (hydroxypropylcellulose) (HPC)

## COC(=O)c1ccc(N2C(=O)C=CC2=O)cc1
endpoint: median survival time, dose: 0.75 mg/kg/injection, schedule: Q01DX009 (ip), vehicle: saline with Tween-80
  T/C: 100 % of control
endpoint: median survival time, dose: 1.5 mg/kg/injection, schedule: Q01DX009 (ip), vehicle: saline with Tween-80
  T/C: 100 % of control
endpoint: median survival time, dose: 3.0 mg/kg/injection, schedule: Q01DX009 (ip), vehicle: saline with Tween-80
  T/C: 120 % of control

## C[C@@H]1CN1C1=CC(=O)C(N2C[C@H]2C)=CC1=O
endpoint: median survival time, dose: 0.31 mg/kg/injection, schedule: Q01DX009 (ip), vehicle: gum acacia
  T/C: 122 % of control
endpoint: median survival time, dose: 1.25 mg/kg/injection, schedule: Q01DX009 (ip), vehicle: gum acacia
  T/C: 169 % of control
endpoint: median survival time, dose: 2.5 mg/kg/injection, schedule: Q01DX009 (ip), vehicle: gum acacia
  T/C: 166 % of control and 169 % of control
endpoint: median survival time, dose: 5.0 mg/kg/injection, schedule: Q01DX009 (ip), vehicle: gum acacia
  T/C: 169 % of control and 173 % of control
endpoint: median survival time, dose: 37.0 micrograms/kg/injection, schedule: Q01DX009 (ip), vehicle: gum acacia
  T/C: 102 % of control
endpoint: median survival time, dose: 75.0 micrograms/kg/injection, schedule: Q01DX009 (ip), vehicle: gum acacia
  T/C: 113 % of control
endpoint: median survival time, dose: 150.0 micrograms/kg/injection, schedule: Q01DX009 (ip), vehicle: gum acacia
  T/C: 117 % of control
endpoint: median survival time, dose: 310.0 micrograms/kg/injection, schedule: Q01DX009 (ip), vehicle: gum acacia
  T/C: 111 % of control

## NC(Cc1ccccc1[N+](=O)[O-])C(=O)O (stereo not given)
[1]
  T/C: 92 % of control
[2]
  T/C: 93 % of control
[3]
  T/C: 91 % of control

## Nc1nnnn1-n1cccc1
[4]
  T/C: 103 % of control
[5]
  T/C: 103 % of control
[6]
  T/C: 103 % of control

## O=c1oc2ccccc2c(O)c1C(c1ccc(Cl)cc1)c1c(O)c2ccccc2oc1=O
endpoint: median survival time, dose: 15.0 mg/kg/injection, schedule: Q01DX005 (ip), vehicle: saline with Tween-80
  T/C: 94 % of control
endpoint: median survival time, dose: 30.0 mg/kg/injection, schedule: Q01DX005 (ip), vehicle: saline with Tween-80
  T/C: 93 % of control

## CCCCNC(=S)NNC(=O)CNC(c1ccc(OC)cc1)C(CC)c1ccc(OC)cc1 (stereo not given)
[7]
  T/C: 88 % of control
[8]
  T/C: 101 % of control

## CCC(c1ccc(OCCS(=O)(=O)Oc2ccccc2)cc1)C(CC)c1ccc(OCCS(=O)(=O)Oc2ccccc2)cc1 (stereo not given)
endpoint: median survival time, dose: 100.0 mg/kg/injection, schedule: Q04DX003 (ip), vehicle: suspension in saline
  T/C: 99 % of control
endpoint: median survival time, dose: 200.0 mg/kg/injection, schedule: Q04DX003 (ip), vehicle: suspension in saline
  T/C: 98 % of control
endpoint: median survival time, dose: 400.0 mg/kg/injection, schedule: Q04DX003 (ip), vehicle: suspension in saline
  T/C: 98 % of control

## COC(F)C(C)=O (stereo not given)
endpoint: median survival time, dose: 100.0 mg/kg/injection, schedule: Q01DX001 (ip), vehicle: other
  T/C: 103 % of control
endpoint: median survival time, dose: 200.0 mg/kg/injection, schedule: Q01DX001 (ip), vehicle: other
  T/C: 101 % of control
endpoint: median survival time, dose: 400.0 mg/kg/injection, schedule: Q01DX001 (ip), vehicle: other
  T/C: 112 % of control

## Nc1nc(N)c(N)c(N)n1
endpoint: median survival time, dose: 50.0 mg/kg/injection, schedule: Q04DX003 (ip), vehicle: saline with Tween-80
  T/C: 98 % of control
endpoint: median survival time, dose: 100.0 mg/kg/injection, schedule: Q04DX003 (ip), vehicle: saline with Tween-80
  T/C: 104 % of control
endpoint: median survival time, dose: 200.0 mg/kg/injection, schedule: Q04DX003 (ip), vehicle: saline with Tween-80
  T/C: 97 % of control
endpoint: median survival time, dose: 400.0 mg/kg/injection, schedule: Q04DX003 (ip), vehicle: saline with Tween-80
  T/C: 96 % of control

## c1ccc(C2SCC3(CCCCC3)CS2)cc1
endpoint: median survival time, dose: 25.0 mg/kg/injection, schedule: Q01DX005 (ip), vehicle: saline with Tween-80
  T/C: 98 % of control
endpoint: median survival time, dose: 50.0 mg/kg/injection, schedule: Q01DX001 (ip), vehicle: saline with Tween-80
  T/C: 101 % of control
[4]
  T/C: 100 % of control
[7]
  T/C: 101 % of control
[5]
  T/C: 100 % of control
[8]
  T/C: 94 % of control
[6]
  T/C: 98 % of control
endpoint: median survival time, dose: 400.0 mg/kg/injection, schedule: Q01DX001 (ip), vehicle: saline with Tween-80
  T/C: 88 % of control

## O=C(CC([Se]c1ccccc1)c1ccccc1)c1ccccc1 (stereo not given)
[1]
  T/C: 109 % of control
[2]
  T/C: 109 % of control
[3]
  T/C: 95 % of control

## C=CCSc1cccc2ccccc12
[1]
  T/C: 100 % of control
[2]
  T/C: 109 % of control

## CCCCCCC(=O)/C=C/c1ccccc1OC(=O)c1ccc(Cl)cc1
endpoint: median survival time, dose: 25.0 mg/kg/injection, schedule: Q01DX009 (ip), vehicle: saline with Tween-80
  T/C: 101 % of control
[1]
  T/C: 88 % of control and 90 % of control
[2]
  T/C: 95 % of control
[3]
  T/C: 94 % of control

## CCCCCOC(=O)CC(N)C(=O)OCCCCC (stereo not given)
[1]
  T/C: 100 % of control
[2]
  T/C: 100 % of control
[3]
  T/C: 90 % of control

## CC(C)(c1ccc(OCOC(=O)NN)cc1)c1ccc(OCOC(=O)NN)cc1
[1]
  T/C: 95 % of control
[2]
  T/C: 102 % of control

## CCOC(=O)C(Cc1ccc(N(CCCl)CCCl)cc1)NC(=O)C(CCC(=O)O)NC(=O)C(Cc1ccc(O)cc1)NC(=O)C(CCCC(=O)O)NC(=O)C(N)Cc1ccc(O)cc1 (stereo not given) (H-Y[Aad]YE[ξPhe(4-N(CH2CH2Cl)2)]-OEt; configuration not given here)
endpoint: median survival time, dose: 25.0 mg/kg/injection, schedule: Q01DX009 (ip), vehicle: Klucel (hydroxypropylcellulose) (HPC)
  T/C: 162 % of control
endpoint: median survival time, dose: 50.0 mg/kg/injection, schedule: Q01DX009 (ip), vehicle: Klucel (hydroxypropylcellulose) (HPC)
  T/C: 173 % of control and 186 % of control
endpoint: median survival time, dose: 100.0 mg/kg/injection, schedule: Q01DX009 (ip), vehicle: Klucel (hydroxypropylcellulose) (HPC)
  T/C: 189 % of control and 230 % of control
endpoint: median survival time, dose: 200.0 mg/kg/injection, schedule: Q01DX009 (ip), vehicle: Klucel (hydroxypropylcellulose) (HPC)
  T/C: 218 % of control and 220 % of control

## O=S(=O)(O)c1ccc(-c2ccc(S(=O)(=O)O)cc2)cc1 (tested in a mixture with another compound)
endpoint: mean survival time, dose: 20.0 mg/kg/injection, schedule: Q01DX009 (ip), vehicle: saline
  T/C: 253 % of control
endpoint: mean survival time, dose: 40.0 mg/kg/injection, schedule: Q01DX009 (ip), vehicle: saline
  T/C: 232 % of control
endpoint: median survival time, dose: 12.5 mg/kg/injection, schedule: Q01DX009 (ip), vehicle: saline sonified
  T/C: 154 % of control
endpoint: median survival time, dose: 20.0 mg/kg/injection, schedule: Q01DX009 (ip), vehicle: saline
  T/C: 231 % of control
endpoint: median survival time, dose: 25.0 mg/kg/injection, schedule: Q01DX009 (ip), vehicle: saline sonified
  T/C: 150 % of control
endpoint: median survival time, dose: 33.0 mg/kg/injection, schedule: Q04DX003 (ip), vehicle: saline
  T/C: 165 % of control
endpoint: median survival time, dose: 40.0 mg/kg/injection, schedule: Q01DX009 (ip), vehicle: saline
  T/C: 272 % of control
endpoint: median survival time, dose: 50.0 mg/kg/injection, schedule: Q01DX009 (ip), vehicle: saline sonified
  T/C: 272 % of control
endpoint: median survival time, dose: 50.0 mg/kg/injection, schedule: Q04DX003 (ip), vehicle: saline sonified
  T/C: 181 % of control
endpoint: median survival time, dose: 50.0 mg/kg/injection, schedule: Q04DX003 (ip), vehicle: saline
  T/C: 169 % of control
endpoint: median survival time, dose: 75.0 mg/kg/injection, schedule: Q04DX003 (ip), vehicle: saline
  T/C: 221 % of control

## CCCCCCCCCCCCCCCCOS(=O)(=O)O (tested in a mixture with another compound)
endpoint: median survival time, dose: 20.0 mg/kg/injection, schedule: Q01DX009 (ip), vehicle: saline with Tween-80
  T/C: 99 % of control
endpoint: median survival time, dose: 40.0 mg/kg/injection, schedule: Q01DX009 (ip), vehicle: saline with Tween-80
  T/C: 92 % of control

## [Cl][Sn]([Cl])([c]1ccccc1)[c]1ccccc1.c1ccncc1.c1ccncc1
endpoint: median survival time, dose: 3.12 mg/kg/injection, schedule: Q01DX009 (ip), vehicle: saline
  T/C: 150 % of control
endpoint: median survival time, dose: 6.25 mg/kg/injection, schedule: Q01DX009 (ip), vehicle: Klucel (hydroxypropylcellulose) (HPC)
  T/C: 153 % of control and 166 % of control
endpoint: median survival time, dose: 6.25 mg/kg/injection, schedule: Q01DX009 (ip), vehicle: saline
  T/C: 156 % of control
endpoint: median survival time, dose: 12.5 mg/kg/injection, schedule: Q01DX009 (ip), vehicle: Klucel (hydroxypropylcellulose) (HPC)
  T/C: 155 % of control and 180 % of control
endpoint: median survival time, dose: 12.5 mg/kg/injection, schedule: Q01DX009 (ip), vehicle: saline with Tween-80
  T/C: 151 % of control

## CCC1CC(C(=O)O)CC(=O)N1 (stereo not given)
endpoint: median survival time, dose: 17.5 mg/kg/injection, schedule: Q01DX005 (ip), vehicle: Klucel (hydroxypropylcellulose) (HPC)
  T/C: 92 % of control
endpoint: median survival time, dose: 35.0 mg/kg/injection, schedule: Q01DX005 (ip), vehicle: Klucel (hydroxypropylcellulose) (HPC)
  T/C: 90 % of control
endpoint: median survival time, dose: 70.0 mg/kg/injection, schedule: Q01DX005 (ip), vehicle: Klucel (hydroxypropylcellulose) (HPC)
  T/C: 97 % of control

## Cc1nc(C(=O)O)c(C(=O)O)[nH]1
endpoint: median survival time, dose: 100.0 mg/kg/injection, schedule: Q01DX009 (ip), vehicle: saline sonified
  T/C: 90 % of control
endpoint: median survival time, dose: 200.0 mg/kg/injection, schedule: Q01DX009 (ip), vehicle: saline sonified
  T/C: 100 % of control

## CN(C)C1CS(=O)(=O)OC2=C1CCc1c2ccn1C (stereo not given)
[9]
  T/C: 96 % of control
[10]
  T/C: 98 % of control
endpoint: median survival time, dose: 240.0 mg/kg/injection, schedule: Q01DX005 (ip), vehicle: Klucel (hydroxypropylcellulose) (HPC)
  T/C: 96 % of control

## CN1c2ccccc2SC1(C)CCC(=O)O (stereo not given)
[9]
  T/C: 105 % of control
[10]
  T/C: 104 % of control
